Assay results: patent US20170135979A1, “PDE-DELTA INHIBITOR FOR THE TREATMENT OF CANCER” (Macau University of Science and Technology, priority 2015, published 2017)

Key:
[1] = test system: active (GTP-bound) K-RAS in A549 cells; assay: K-RAS activation (GTP pull down) assay with immunoblotting; format: cell-based
Protocol: Further, a K-RAS activation assay with subsequent immunoblotting has been carried out. […] Cells were lysed in lysis buffer, adjusted the volume of each sample to 1 mL with 1× Assay Lysis Buffer, 40 μL of the Raf1 RBD Agarose bead slurry were added to each sample quickly, follow by incubating the tubes at 4° C. for 1 hour with gentle agitation, beads were washed three times with cold lysis buffer, and bounded protein was resuspended in 40 μL of 2× reducing SDS-PAGE sample buffer and heated at 100° C. for 5 min. The samples were then run by SDS-PAGE followed by immunoblotting. Total amount of RAS being pulled down were compared between the control and treatment groups.
The compound of Formula (VII) inhibited K-RAS binding to GTP in A549 cells.

[2] = test system: human pancreatic ductal adenocarcinoma cells; settings: in vitro and in vivo; cited from earlier work
[3] = test system: A549 (K-RAS G12S) cells; assay: MTT cell viability assay, 72 h; format: cell-based; settings: Homo sapiens
Protocol: (§1) A549 (K-RAS^G12S), H358 (K-RAS^G12C), H2122 (K-RAS^G12C) and CCD19-Lu cells were obtained from the American Type Culture Collection and cultured in an environment of 5% CO2 at 37° C. in RPMI-1640 medium supplemented with 10% fetal bovine serum (FBS), 100 units/mL penicillin, and 100 μg/mL streptomycin.
(§2) 3000 cells were seeded on 96-well plates, cultured overnight for cell adhesion, then treated with DMSO or various concentrations of compound of Formula (VII) for 72 h, at the end of the incubation, each well was added with 10 μL of MTT (5 mg/mL; Sigma), and the plates were incubated for an additional 4 h, then the crystals were dissolved in 100 μL of the resolved solution (10% SDS and 0.1 mM HCL). The absorbance at 570 nm was measured using a microplate reader (Tecan, Morrisville, N.C., USA). The cell viability was calculated relative to untreated controls, with results based on at least three independent experiments. […] The IC50 in CCD19-Lu is more than 20 μM (Table 1).

[4] = test system: H2122 (K-RAS G12C) cells; assay: MTT cell viability assay, 72 h; format: cell-based; settings: Homo sapiens, NCI-H2122
Protocol: as §1, §2

[5] = test system: H358 (K-RAS G12C) cells; assay: MTT cell viability assay, 72 h; format: cell-based; settings: Homo sapiens, NCI-H358
Protocol: as §1, §2

[6] = test system: normal lung epithelial cells (CCD19-Lu); assay: MTT cell viability assay, 72 h; format: cell-based; settings: Homo sapiens, CCD 19Lu
Protocol: as §1, §2

[7] = test system: A549 cells; assay: Annexin V-FITC/PI apoptosis assay by flow cytometry; format: cell-based; settings: A549, 2.5 μM, 5 μM or 10 μM, 48 h, compared with control group
Protocol: Apoptosis was measured using the Annexin V-FITC apoptosis detection kit (BD Biosciences, San Jose, Calif., USA), according to the manufacturer protocol. […] Subsequently, cells were trypsinized, washed with PBS and stained with 100 μL binding buffer containing 2 μL Annexin-V FITC and 5 μL propidine iodide (PI) incubated in the dark at room temperature for 15 min, before further addition of 400 μL of 1× Annexin-binding buffer. The stained cells were analyzed quantitatively using a Flow Cytometer (BD Biosciences, San Jose, Calif., USA). Data were analyzed by Flow Jo software.

[8] = test system: A549 cells; assay: Colony formation assay; format: cell-based; settings: 10 days
Protocol: Still further, the inhibitory effect of the compound of Formula (VII) on the colony formation in A549 cells has been analyzed to provide further evidence that the compound of Formula (VII) inhibits the formation of colonies of cancerous cells to an exceptional degree, too. A549 cells were seeded on a six-well plate at a density of 500 cells per well. […] After 10 days, the colonies were fixed with 4% paraformaldehyde and stained with a 0.5% (0.5% w/v) crystal violet solutions, the number of colonies >50 was counted under a dissecting microscope.

[9] = test system: p-C-raf, pErk, pAkt in A549 cells; assay: Western blot of signaling pathways downstream to K-RAS; format: cell-based; settings: A549, 2.5 μM, 5 μM and 10 μM, compared with untreated cells
Protocol: Equal amounts of protein (20-40 μg per lane) were separated with a 10% SDS-PAGE gel, then the separated proteins were transferred to a Nitrocellulose (NC) membrane, which was then exposed to 5% non-fat dry milk in TBS containing 0.1% Tween 20 (0.1% TBST) for 1 hour at room temperature with constant agitation, followed by overnight incubation at 4° C. with primary antibodies, after washing three times by TBST, the membranes were incubated with secondary rabbit or mouse fluorescent antibodies, the signal intensity of the membranes was detected by anLI-COR Odessy scanner (Belfast, Me., USA). All primary antibodies were diluted 1:1000, while their recommended secondary antibodies were diluted 1:10000.

c1ccc(Cn2c(-c3ccc(OC[C@H](C4CCNCC4)n4c(-c5ccccc5)nc5ccccc54)cc3)nc3ccccc32)cc1 [Deltarasin, reference compound]
GTP binding with K-RAS ([1]; A549, 4 μM, positive control): suppression | proliferation of human pancreatic ductal adenocarcinoma cells [2]: strongly suppressed

CC(C)(C)c1cc2oc3c(c2c(/C=N/NC(=O)c2ccc(O)cc2O)c1O)CCCC3 [compound of Formula (VII)]
IC50 [3]: 5.59 ± 1.27 µM | IC50 [4]: 3.35 ± 2.74 µM | IC50 [5]: 2400 ± 2100 nM | IC50 [6]: > 20 µM | cell apoptosis [7]: induced significant cell apoptosis | colony formation capacity ([8]; A549, 1.25 μM, 2.5 μM, 5 μM or 10 μM): significantly inhibited | colonies formed ([8]; A549, 10 μM): no visible colonies | level of p-C-raf [9]: decreased | level of pAkt [9]: decreased | level of pErk [9]: decreased | amount of K-RAS being pulled down (GTP-bound K-RAS) ([1]; A549, 10 μM, 48 h, compared to untreated control): caused a decrease
